In PMC10287695, “Non-covalent inhibitors of thioredoxin glutathione reductase with schistosomicidal activity in vivo” (Nature Communications, 2023):
Where two headings read alike, the source gives them in different places.

Assays:
[1] = target: T1, S. mansoni TGR (Schistosoma mansoni, UniProt Q962Y6); assay: S. mansoni TGR enzyme inhibition (DTNB reduction); type: biochemical; conditions: for IC50: 15 min preincubation (enzyme + 100 µM NADPH + compound); for % inhibition / inhibition at 15 µM / inhibition at 30 µM: TGR; for inhibition at 15 µM / inhibition at 30 µM: read-out: % inhibition
T1 construct: made in house
T1 sequence (Q962Y6 1-598): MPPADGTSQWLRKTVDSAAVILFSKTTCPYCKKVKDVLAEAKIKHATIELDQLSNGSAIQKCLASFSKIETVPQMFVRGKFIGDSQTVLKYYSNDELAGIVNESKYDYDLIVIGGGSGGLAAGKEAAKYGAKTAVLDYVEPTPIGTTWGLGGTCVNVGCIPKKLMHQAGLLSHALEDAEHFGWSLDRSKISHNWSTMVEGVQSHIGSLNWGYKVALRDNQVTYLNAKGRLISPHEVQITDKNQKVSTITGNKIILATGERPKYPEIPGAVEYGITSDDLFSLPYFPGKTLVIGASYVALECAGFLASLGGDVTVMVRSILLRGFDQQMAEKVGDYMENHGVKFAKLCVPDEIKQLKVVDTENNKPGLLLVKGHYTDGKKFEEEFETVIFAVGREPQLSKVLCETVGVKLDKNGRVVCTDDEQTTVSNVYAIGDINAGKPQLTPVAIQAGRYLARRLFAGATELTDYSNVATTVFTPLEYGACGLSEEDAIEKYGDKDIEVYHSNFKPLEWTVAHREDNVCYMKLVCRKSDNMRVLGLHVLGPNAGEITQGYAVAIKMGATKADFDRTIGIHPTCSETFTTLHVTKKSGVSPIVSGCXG
Description: Recombinant TGR, human TrxR1, B. malayi (Bm)TrxR and human GR proteins were expressed and purified as described[20],[69],[79]. The codon optimized sequence for P. falciparum (PfTrxR, https://www.ncbi.nlm.nih.gov/protein/CAA60574.1/) with an N-terminal 6-His tag was synthesized and inserted into pET15b (GenScript) and expressed in BL21 (DE3) cells and purified as described for human GR[20]. TGR and TrxR enzyme inhibition assays were performed in triplicate at 25 °C as described[20] in 0.1 M potassium phosphate (pH 7.4), 10 mM EDTA, 100 µM NADPH and 0.01% Tween-20. […] The reaction was started with addition of an equal volume of DTNB (6 mM) and NADPH (100 µM) and the increase in A412 during the first 3 min was recorded. […] The reaction was preincubated for 15 min. Activity was initiated with the addition of 1 mM GSSG and 100 μM NADPH and initial rates of NADPH oxidation were monitored at 340 nm. The reactions were done in triplicate. The IC50 was calculated in GraphPad Prism.

[2] = tested on: S. mansoni adult worms; assay: GSH/GSSG ratio in ex vivo adult worms; type: cell-based; conditions: for Decrease (%) in GSH/GSSG ratio: adult worms, 3 h exposure to compounds at 50 μM; for Reduction (%) in GSH/GSSG ratio: third data set
Description: We assessed GSH/GSSG levels experimentally by treating S. mansoni adult worms with 50 µM of compounds, or respective controls 5 µM Auranofin, 50 µM PZQ or 50 µM MZM and 0.01% DMSO for 3 h. Worm homogenate was prepared by washing three times with PBS to remove residual compounds and ten volumes of ice cold 5% sulfosalicylic acid was added. Worms were manually homogenized on ice using VWR Pellet Mixer Adaptor. The worm suspension was centrifuged at 14000 × g, 4 °C for 10 min and the acid supernatants transferred. An equal volume of ice-cold neutralization buffer (500 mM HEPES, pH 8.0) was added to the acid supernatants.
GSH/GSSG assay was performed by diluting the acid supernatant (5-fold) with ice-cold dilution buffer (250 mM HEPES, pH 7.5). Using white opaque luminescence plate on ice, 25 µl of the diluted worm acid supernatant was added each well in triplicates. Total glutathione lysis reagent and GSSG lysis reagent, which contains alkylating agent N-ethylmaleimide (25 mM) were prepared following manufactures protocol and added to respective wells along with blank for background. Total glutathione lysis reagent or oxidized glutathione lysis reagent (25 µl) was added to respective wells containing worm acid supernatants and the plate was shaken for 5 min. Luciferin generation reagent (LGR) (50 µl) was added to all wells, briefly shaken and incubated at room temperature for 30 min. Luciferin detection reagent (LDR) (100 µl) was added to all wells, briefly shaken and incubated for 15 min at room temperature and the luminescence measured using microplate imager (BioTek Cytation3). GSH/GSSH ratio for DMSO control and compounds were calculated using (Net DMSO total glutathione RFU) – (Net DMSO GSSG RFU)/ (Net DMSO GSSG RFU)/2 and (Net inhibitor total glutathione RFU) – (Net inhibitor GSSG RFU)/ (Net inhibitor GSSG RFU)/2 respectively.

[3] = tested on: S. mansoni newly transformed schistosomula (NTS); assay: Schistosomicidal activity ex vivo, NTS (Cell Titer Glo); type: cell-based; conditions: for LD50 ex vivo S. mansoni NTS: 24 h exposure, Cell TiterGlo; for % viability: S. mansoni NTS
Description: Oncomelania hupensis subsp. hupensis, Chinese strain, infected with S. japonicum, Chinese strain, and Biomphalaria glabrata, strain NMRI, infected with S. mansoni, strain NMRI, were provided by the NIAID Schistosomiasis Resource Center for distribution through BEI Resources, NIAID, NIH. After infections were patent, snails were exposed to bright light for 1 hr to obtain cercariae. Cercariae were mechanically transformed to schistosomula. Briefly, cercariae were placed on ice for 30 min and then centrifuged at 350 × g for 10 mins. The supernatant was decanted and 2 ml of serum-free M199 medium was added to cercarial pellets and vortexed for 1 min until cercarial tails were detached. NTS were purified by layering on 4 °C Percoll gradient suspension containing Eagle’s minimum essential medium, penicillin-streptomycin (10,000 U per ml penicillin/10,000 U per ml streptomycin), and 1 M HEPES in 0.85% NaCl with cercariae suspension and centrifuged at 500 × g for 15 min. Cercarial pellets were resuspended and washed thrice in serum-free M199 medium and collected at 100 × g for 5 min. NTS (240) were transferred to U-bottom 96 well assay plates containing 200 µl of M199 medium supplemented with 5.5 mM D-glucose, penicillin-streptomycin and 5% heat inactivated fetal bovine serum and incubated at 37 °C in a 5% CO2 incubator overnight.
DMSO formulated compounds were diluted with phenol red free M199 medium or RPMI medium for NTS or juvenile and adult worms, respectively, at <1% DMSO final concentrations. NTS, juvenile and adult worms from overnight cultures were tested against compounds in triplicate. Controls were treated with DMSO alone or 5 µM AF as a positive control in appropriate medium. Worm viability was assessed at 24 or 72 h by measuring ATP content of worms using Cell Titer Glo Assay (Promega) as described. Schistosome viabilities in the presence of the compounds were assessed using this formula: % Viability = Averages of Test / Averages of DMSO Control x 100.

[4] = 15 minutes pre-incubation, compound 15 µM
[5] = 15 minutes pre-incubation, compound 30 µM
[6] = 15 minutes pre-incubation, compound 66.7 µM
[7] = 6 hours pre-incubation, compound 15 µM
[8] = 6 hours pre-incubation, compound 30 µM
[9] = 6 hours pre-incubation, compound 66.7 µM
[10] = Schistosoma mansoni, 72 h, read-out: % viability, S. mansoni NTS

## CC(=O)OC[C@H]1O[C@@H]([S-])[C@H](OC(C)=O)[C@@H](OC(C)=O)[C@@H]1OC(C)=O.CCP(CC)CC.[Au+] [AF, auranofin, reference compound]
[1]
  IC50: 7 nM
[2]; 1 hr, first data set (r117-133), baseline 55.82
  Ratio GSH/GSSG: 8.34
[2]; 1 hr, first data set (r117-133), baseline = 100
  % Ratio GSH/GSSG: 14.9481%
[2]; 3 hr, first data set (r117-133), baseline 55.82
  Ratio GSH/GSSG: 4.85
[2]; 3 hr, first data set (r117-133), baseline = 100
  % Ratio GSH/GSSG: 8.693%
[2]
  Decrease (%) in GSH/GSSG ratio: 91%
[3]
  LD50 ex vivo S. mansoni NTS: 0.31 ± 0.02 µM
[3]; Conc. 0.25 µM
  % viability: 60.0497%
[3]; Conc. 0.5 µM
  % viability: 36.3261%
[3]; Conc. 1 µM
  % viability: 18.3613%
[3]; Conc. 2 µM
  % viability: 10.7245%
[3]; Conc. 5 µM
  % viability: 0.4904%

## Cc1oc(-c2ccccc2)nc1CN[C@@H]1C[C@@H]2C[C@H]([C@H]1C)C2(C)C [C3]
[1]; [4]
  % inhibition: 3.671%
[1]; [5]
  % inhibition: 7.41%
[1]; [6]
  % inhibition: 17.804%
[1]; [7]
  % inhibition: 23.6178%
[1]; [8]
  % inhibition: 33.5098%
[1]; [9]
  % inhibition: 42.7576%
[3]; Conc. 5 µM
  % viability: 6.85%
[3]; Conc. 15 µM
  % viability: 0.6968%
[3]; Conc. 30 µM
  % viability: 0.5581%
[3]; Conc. 50 µM
  % viability: 0.6054%

## Cc1oc(-c2ccc3ccccc3c2)nc1CNC1CCCCCC1 [C5]
[1]; [4]
  % inhibition: 26.4295%
[1]; [5]
  % inhibition: 32.2766%
[1]; [6]
  % inhibition: 38.9031%
[1]; [7]
  % inhibition: 38.3649%
[1]; [8]
  % inhibition: 50.2366%
[1]; [9]
  % inhibition: 73.0458%
[3]; Conc. 1 µM
  % viability: 80.9812%
[3]; Conc. 5 µM
  % viability: 52.5668%
[3]; Conc. 15 µM
  % viability: 62.9498%
[3]; Conc. 35 µM
  % viability: 0.09782%
[3]; Conc. 50 µM
  % viability: 0.07949%

## C[C@@H]1[C@H]2C[C@@H](C[C@H]1NCc1nc3ccccc3n1C)C2(C)C [C12]
[1]; 15 minutes pre-incubation, 15 µM
  TGR % inhibition: 0.03253%
[1]; 15 minutes pre-incubation, 30 µM
  TGR % inhibition: 0.1888%
[1]; 15 minutes pre-incubation, 66.7 µM
  TGR % inhibition: 0.4169%
[1]; 6 hours pre-incubation, 15 µM
  TGR % inhibition: 0.1402%
[1]; 6 hours pre-incubation, 30 µM
  TGR % inhibition: 1.567%
[1]; 6 hours pre-incubation, 66.7 µM
  TGR % inhibition: 2.052%
[3]; 5 µM, relative to Worm + M199 control
  % viability: 95.6217%
[3]; 15 µM, relative to Worm + M199 control
  % viability: 91.9573%
[3]; 30 µM, relative to Worm + M199 control
  % viability: 88.4326%
[3]; 50 µM, relative to Worm + M199 control
  % viability: 85.8655%

## Cc1oc(-c2ccc3c(c2)OCO3)nc1CN[C@@H]1C[C@@H]2C[C@H]([C@H]1C)C2(C)C [Compound 1]
[1]
  IC50: > 66700 nM
[1]; 6 h preincubation (enzyme + 100 µM NADPH + compound), read-out: S. mansoni TGR inhibition (%) at 66.7 µM
  inhibition at 66.7 µM: 42.1%
[1]; [4]
  inhibition at 15 µM: 5.86%
[1]; [5]
  inhibition at 30 µM: 10%
[1]; [7]
  inhibition at 15 µM: 7.78%
[1]; [8]
  inhibition at 30 µM: 21.1%
[2]; 1 hr
  Reduction (%) in GSH/GSSG ratio: 50.9919%
[2]; 1 hr, third data set (r147-159), 0hr 72.45
  Ratio GSH/GSSG: 35.51
[2]; 1 hr, third data set (r147-159), 0hr = 100
  % Ratio GSH/GSSG: 49.0081%
[2]; 1 hr, (values given as fraction)
  Reduction (%) in GSH/GSSG ratio: 0.5099%
[2]; 3 hr
  Reduction (%) in GSH/GSSG ratio: 78.3034%
[2]; 3 hr, third data set (r147-159), 0hr 72.45
  Ratio GSH/GSSG: 15.72
[2]; 3 hr, third data set (r147-159), 0hr = 100
  % Ratio GSH/GSSG: 21.6966%
[2]; 3 hr, (values given as fraction)
  Reduction (%) in GSH/GSSG ratio: 0.78%
[2]
  Decrease (%) in GSH/GSSG ratio: 75%
[3]
  LD50 ex vivo S. mansoni NTS: 5.9 ± 0.25 µM
[3]; 72 h exposure
  LD50 NTS after 72 h exposure: 2.2 ± 0.19 µM
[3]; Schistosoma mansoni
  viability at 1 µM: 89.9%
  viability at 5 µM: 52.7%
  viability at 15 µM: 30%
  viability at 30 µM: 24.6%
  viability at 50 µM: 17.6%
[3]; [10]
  viability at 0.25 µM: 92.1%
  viability at 1 µM: 71.2%
  viability at 3 µM: 48.1%
  viability at 6 µM: 23.4%
